Reference: patent publication US20240041042A1, “1-(PYRIDYL)-5-AZINYLPYRAZOLE DERIVATIVES, AND THEIR USE FOR CONTROL OF UNDESIRED PLANT GROWTH” (Bayer Aktiengesellschaft, priority 2020, published 2024)
Like-named read-outs stand apart in the source and are kept apart here.

Experiments:
Format in all cases: in vivo
[1] = tested on: Verconica persica (VERPE); assay: Post-emergence herbicidal action against VERPE
In short: (§1)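 Rates were 320 g/ha or below, applied as aqueous WP/EC spray with 0.5% additive (600 l/ha) onto one-leaf-stage plants. About 3 weeks later in the greenhouse, damage was scored visually against untreated plants on a 0–100% scale, where 100% means plants died.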

Setaria viridis (SETVI) [2] = assay: Post-emergence herbicidal action against SETVI
In short: as §1

[3] = tested on: Triticum aestivum (TRZAS); conditions: crop plant compatibility, effect vs untreated controls
In short: (§2)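 Visual rating (% effect vs. untreated plants; 100% = plant death) made about 3 weeks after treatment. Plants had been sprayed at one-leaf stage, 2–3 weeks post-sowing, with aqueous WP/EC preparations containing 0.5% additive, 600 l/ha water volume; a, b, c mark dose levels.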

Oryza sativa (ORYSA) [4] = conditions: crop plant compatibility
In short: as §2

Zea mays (ZEAMX) [5] = conditions: for Post-emergence action against ZEAMX in %: crop plant compatibility, effect vs untreated controls
In short: as §2

[6] = tested on: Amaranthus retroflexus (AMARE); assay: Post-emergence herbicidal action against AMARE
In short: as §1

Setaria viridis (SETVI) [7] = assay: Pre-emergence herbicidal action against SETVI; conditions: dosage 320 g/ha
In short: (§3)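 Read-out is visual percent damage relative to untreated pots, with 100% meaning dead plants and 0% meaning no difference, assessed roughly three weeks after treatment. Compounds were applied pre-emergence to the covering soil at up to 320 g/ha.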

[8] = tested on: Pharbitis purpurea (PHBPU); assay: Post-emergence herbicidal action against PHBPU
In short: as §1

[9] = tested on: Digitaria sanguinalis (DIGSA); assay: Pre-emergence herbicidal action against DIGSA
In short: as §3

[10] = tested on: Polygonum convolvulus (POLCO); assay: Pre-emergence herbicidal action against POLCO
In short: as §3

[11] = tested on: Abutilon theophrasti (ABUTH); assay: Post-emergence herbicidal action against ABUTH; conditions: visual rating about 3 weeks after treatment vs untreated controls (100% = plants have died, 0% = like control plants)
In short: as §1

[12] = tested on: Matricaria inodora (MATIN); assay: Pre-emergence herbicidal action against MATIN; conditions: dosage 320 g/ha
In short: as §3

[13] = tested on: Echinochloa crus-galli (ECHCG); assay: Post-emergence herbicidal action against ECHCG
In short: as §1

Lolium rigidum (LOLRI) [14] = assay: Pre-emergence herbicidal action against LOLRI; conditions: dosage 320 g/ha
In short: as §3

Avena fatua (AVEFA) = assay: Pre-emergence herbicidal action against AVEFA; conditions: 320 g/ha, visual scoring after about 3 weeks vs untreated controls
In short: as §3

[15] = tested on: Echinochloa crus-galli (ECHCG); assay: Pre-emergence herbicidal action against ECHCG
In short: as §3

[16] = tested on: Alopecurus myosuroides (ALOMY); assay: Pre-emergence herbicidal action against ALOMY; conditions: 320 g/ha; scored visually after about 3 weeks; 100% = plants have died
In short: as §3

[17] = tested on: Amaranthus retroflexus (AMARE); assay: Pre-emergence herbicidal action against AMARE; conditions: 320 g/ha, visual scoring after about 3 weeks vs untreated controls
In short: as §3

Viola tricolor (VIOTR) [18] = assay: Pre-emergence herbicidal action against VIOTR
In short: as §3

[19] = tested on: Triticum aestivum (TRZAS); conditions: pre-emergence, crop plant compatibility, in comparison to untreated controls
In short: (§4)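 Scoring: visual, % of untreated control, about 3 weeks after a pre-emergence application to the soil surface. Application used WP or EC formulations diluted in water with 0.5% additive at 600 l/ha; dosage levels are marked by suffixes a, b and c.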

Oryza sativa (ORYSA) [20] = conditions: pre-emergence, crop plant compatibility, in comparison to untreated controls
In short: as §4

[21] = tested on: Alopecurus myosuroides (ALOMY); assay: Post-emergence herbicidal action against ALOMY; conditions: visual rating about 3 weeks after treatment vs untreated controls (100% = plants have died, 0% = like control plants)
In short: as §1

[22] = tested on: Polygonum convolvulus (POLCO); assay: Post-emergence herbicidal action against POLCO; conditions: dosage 320 g/ha
In short: as §1

Lolium rigidum (LOLRI) [23] = assay: Post-emergence herbicidal action against LOLRI; conditions: dosage 320 g/ha
In short: as §1

[24] = tested on: Verconica persica (VERPE); assay: Pre-emergence herbicidal action against VERPE
In short: as §3

Viola tricolor (VIOTR) [25] = assay: Post-emergence herbicidal action against VIOTR; conditions: 320 g/ha
In short: as §1

[26] = tested on: Pharbitis purpurea (PHBPU); assay: Pre-emergence herbicidal action against PHBPU; conditions: dosage 320 g/ha
In short: as §3

Zea mays (ZEAMX) [27] = conditions: pre-emergence, 80 g/ha, crop plant compatibility, in comparison to untreated controls
In short: as §4

[28] = 80 g/ha, effect in comparison to untreated controls
[29] = 320 g/ha, effect in comparison to untreated controls

Row | Post-emergence action against ORYSA in % (Oryza sativa (ORYSA) [4]; [28]) [%] | Pre-emergence action against TRZAS in % ([19]; 80 g/ha) [%] | Pre-emergence action against ORYSA in % (Oryza sativa (ORYSA) [20]; 80 g/ha) [%] | Post-emergence action against TRZAS in % ([3]; 80 g/ha) [%] | Post-emergence action against TRZAS in % ([3]; 320 g/ha) [%] | Post-emergence action against ORYSA in % (Oryza sativa (ORYSA) [4]; [29]) [%] | Post-emergence action against ZEAMX in % (Zea mays (ZEAMX) [5]; 80 g/ha) [%] | Pre-emergence action against ZEAMX in % (Zea mays (ZEAMX) [27]) [%] | SMILES | Post-emergence action against VERPE in % ([1]; dosage 80 g/ha) [%] | Pre-emergence action against SETVI in % (Setaria viridis (SETVI) [7]) [%] | Post-emergence action against PHBPU in % ([8]; dosage 80 g/ha) [%] | Pre-emergence action against MATIN in % [12] [%] | Pre-emergence action against LOLRI in % (Lolium rigidum (LOLRI) [14]) [%] | Pre-emergence action against ECHCG in % ([15]; dosage 320 g/ha) [%] | Pre-emergence action against ALOMY [16] [%] | Pre-emergence action against AMARE in % [17] [%] | Post-emergence action against VERPE in % ([1]; 320 g/ha, VERPE) [%] | Post-emergence action against SETVI in % (Setaria viridis (SETVI) [2]; dosage 320 g/ha) [%] | Post-emergence action against PHBPU in % ([8]; dosage 320 g/ha) [%] | Post-emergence action against LOLRI in % (Lolium rigidum (LOLRI) [23]) [%] | further results
1 | 10 | 20 | 10 | – | – | – | – | – | O=C(COc1nn(-c2ccccn2)c(-c2ccc(F)nc2)c1Cl)NS(=O)(=O)CC(F)(F)F [Example I-119] | 80 | 100 | 80 | 90 | 100 | 100 | 100 | 100 | – | – | – | – | Post-emergence action against SETVI in % (Setaria viridis (SETVI) [2]; dosage 80 g/ha): 80%; Post-emergence action against TRZAS in % ([3]; 20 g/ha): 20%; Post-emergence action against ORYSA in % (Oryza sativa (ORYSA) [4]; 20 g/ha, effect vs untreated controls): 0%; Post-emergence action against ZEAMX in % (crop plant compatibility) (Zea mays (ZEAMX) [5]; 20 g/ha, ZEAMX, effect in comparison to untreated controls): 10%; Post-emergence action against AMARE in % ([6]; 80 g/ha, visual rating about 3 weeks after treatment vs untreated controls (100% = plants have died, 0% = like control plants)): 90%; Pre-emergence action against DIGSA in % ([9]; 80 g/ha, visual scoring after about 3 weeks vs untreated controls): 100%; Pre-emergence action against DIGSA in % ([9]; dosage 320 g/ha): 100%; Pre-emergence action against POLCO in % ([10]; dosage 80 g/ha): 80%; Pre-emergence action against POLCO in % ([10]; dosage 320 g/ha): 90%; Post-emergence action against ABUTH in % ([11]; 80 g/ha): 80%; Post-emergence action against ECHCG in % ([13]; dosage 80 g/ha): 80%; Pre-emergence action against AVEFA in % (Avena fatua (AVEFA)): 80%; Pre-emergence action against ECHCG in % ([15]; dosage 80 g/ha): 80%; Pre-emergence action against VIOTR in % (Viola tricolor (VIOTR) [18]; 320 g/ha, Viola tricolor): 90%; Pre-emergence action against VIOTR in % (Viola tricolor (VIOTR) [18]; dosage 80 g/ha): 80%; Post-emergence action against ALOMY in % ([21]; 80 g/ha): 90%
2 | 0 | 10 | 20 | 0 | 20 | 20 | 10 | 10 | Cc1cccc(-n2nc(OCC(=O)O)c(Br)c2-c2ccc(F)nc2)n1 [Example I-376] | – | 100 | – | 80 | 90 | 90 | 80 | 90 | 80 | 80 | 80 | 90 | Post-emergence action against POLCO in % [22]: 80%; Post-emergence action against AMARE in % ([6]; 320 g/ha, visual rating about 3 weeks after treatment): 80%; Pre-emergence action against VERPE in % ([24]; dosage 80 g/ha): 80%; Pre-emergence action against VERPE in % ([24]; dosage 320 g/ha): 80%; Post-emergence action against VIOTR in % (Viola tricolor (VIOTR) [25]): 80%; Post-emergence action against ABUTH in % ([11]; 320 g/ha): 80%; Post-emergence action against ECHCG in % ([13]; dosage 320 g/ha): 90%; Pre-emergence action against PHBPU in % [26]: 90%; Post-emergence action against ALOMY in % ([21]; 320 g/ha): 80%
3 | 0 | 0 | 0 | 0 | – | 10 | 20 | 0 | COC(=O)CCOC(=O)COc1nn(-c2cccc(C)n2)c(-c2ccc(F)nc2)c1Br [Example I-278] | 80 | 100 | 80 | 80 | 80 | – | – | 80 | 90 | 90 | 80 | 80 | Post-emergence action against ECHCG in % ([13]; dosage 320 g/ha): 80%; Pre-emergence action against PHBPU in % [26]: 80%
4 | 0 | 10 | 20 | 10 | 10 | 10 | 0 | 20 | COC(=O)CNC(=O)COc1nn(-c2cccc(C)n2)c(-c2ccc(F)nc2)c1Br [Example I-357] | – | – | 80 | – | – | – | – | – | – | 80 | 80 | – | Post-emergence action against ZEAMX in % (Zea mays (ZEAMX) [5]; 320 g/ha): 10%; Pre-emergence action against TRZAS in % ([19]; 320 g/ha): 10%; Pre-emergence action against ORYSA in % (Oryza sativa (ORYSA) [20]; 320 g/ha): 20%
